The results in this text go back to patent US20150168416A1, “KITS FOR DETECTING AND MONITORING ENDOCRINE DISRUPTING CHEMICALS (EDCs)” (THE UNITED STATES OF AMERICA, as represented by the …, priority 2012, published 2015).

Entries after “also recorded” stand apart in the source; their conditions may differ.

Format in all cases: cell-based
One assay addresses T1, eGFP-ratMR (Rattus norvegicus, UniProt P22199, A771G/D487G).
T1 construct: expressed in transfected cells
Nature of the assay: eGFP-ratMR translocation in mammalian cells. The text has this: (§1) Using molecular cloning methods essentially similar to those employed in Example 1, the following additional traceable fusion proteins have been constructed: an aryl hydrocarbon (e.g., dioxin) sensitive fusion protein, pRevTRE-GFP-mAhR (SEQ ID NOs: 9/10); a mineralocorticoid (e.g., aldosterone) sensitive fusion protein, eGFP-ratMR (SEQ ID NOs: 11/12); and a progestin-sensitive fusion protein, eGFP-hPRB (SEQ ID NOs: 13/14).

In a further assay the target is T2, GFP-GR (Rattus norvegicus, UniProt P06536, C656G/D98G).
T2 construct: expressed in transfected cells; host or cells: 3617 cells (derivative of the 3134 mouse mammary adenocarcinoma line), tetracycline-repressible promoter
Put plainly: GFP-GR cytoplasm-to-nucleus translocation assay (3617 cells). The following applies: hormones 100 nM or known concentrations, water samples 100× unless specified, 30 min. On the procedure: (§2) Prior to imaging, cells were grown overnight on 22-mm^2 coverslips in DMEM medium containing 10% charcoal stripped serum (Hyclone, Logan, Utah) without tetracycline (to allow the expression of the GFP-GR or GFP-AR, respectively) at a density of 2×10^5 per 6-well plate. For the automated experiments conducted in 96 or 384 well plates, cell density was 10, 000 or 2,500 cells per well, respectively. Cells were treated with vehicle control, hormones (100 nM) or water samples for 30 min at 37° C. at a final concentration of 100×for water samples (unless otherwise specified). Additional negative controls contained samples that tested the activity of the POCIS membranes themselves.
(§3) Upon treatment, cells were fixed with 4% paraformaldehyde in PBS for 15 minutes and washed three times with PBS. Cells on the 22-mm^2 coverslips were mounted in […]® mounting media with DAPI (Vector Laboratories, Inc.) and examined on a Leica DMRA microscope with Leica 100× 1.3-N.A. oil immersion objective. Images were acquired in green (GFP-GR and GFP-AR) and UV (DAPI) channel with SenSys (Photometrics) camera with KAF1400 chip configured to collect 0.067-μm-diameter pixels. For the automated experiments conducted in 96 or 384 well plates, cells were stained with DRAQ5 (BioStatus Limited) at a dilution of 1:5000 for 15 minutes and after three final washes with PBS were imaged either immediately on the Perkin Elmer Opera Image Screening System or kept in PBS at 4° C. for later imaging.
(§4) A Perkin Elmer Opera Image Screening System was used for fully automated collection of fluorescence images of cells. This system employed a 40×water immersion objective lens, laser illuminated Nipkow disk, and cooled CCD cameras to digitally capture high resolution confocal fluorescence micrographs (300 nm pixel size with 2×2 camera pixel binning). […] The algorithm also measured the mean GFP-GR or GFP-AR intensity in both compartments, and translocation was calculated as a ratio of these intensities. […]

A further assay addresses T3, GFP-AR (Homo sapiens, UniProt P10275).
T3 construct: expressed in transfected cells; host or cells: 3108 cells (derivative of the 3134 mouse mammary adenocarcinoma line), tetracycline-repressible promoter
Put plainly: GFP-AR cytoplasm-to-nucleus translocation assay (3108 cells). The following applies: hormones 100 nM or known concentrations, water samples 100× unless specified, 30 min. As to the method: as §2, §3, §4

Another assay addresses T4, GFP-PR-B (eGFP-hPRB) (Homo sapiens, UniProt P06401).
T4 construct: Five mammalian clonal lines expressing the same traceable fusion protein, GFP-PR-B (eGFP-hPRB); expressed in transfected cells
Put plainly: GFP-PR-B translocation in clonal cell lines. The note with it: clones 8122, 8124, 8127, 8130 (four of five tested). From the text: Five mammalian clonal lines expressing the same traceable fusion protein, GFP-PR-B (eGFP-hPRB; SEQ ID NO: 14) were contacted with the indicated levels of progesterone, then assayed essentially as in Example 1 for translocation of the fusion protein into the nucleus from the cytoplasm.

In a further assay the target is T5, pRevTRE-GFP-mAhR (Mus musculus, UniProt P30561).
T5 construct: expressed in transfected cells
Put plainly: pRevTRE-GFP-mAhR translocation in mammalian cells.
Excerpt: as §1

On to `C[C@]12CCC(=O)C=C1CC[C@@H]1[C@@H]2[C@@H](O)C[C@]2(C=O)[C@@H](C(=O)CO)CC[C@@H]12` [aldosterone], for which the eGFP-ratMR translocation entry at eGFP-ratMR is “exhibited the expected translocation”.

As to `C[C@@]12CCC[C@H]1[C@@H]1CC(=O)C3=CC(=O)CC[C@]3(C)[C@H]1CC2` [Androst-4-en-3,6-dione], the GFP-GR nuclear translocation result at GFP-GR is reported as “did not induce GFP-GR translocation”. For the same compound, the GFP-AR nuclear translocation result at GFP-AR was “induced GFP-tagged androgen receptor (GFP-AR) translocation”; on GFP-AR (listed as androst-4-en-3,6-dione), “translocated to the nucleus in concentration-dependent manner; also recorded: induces concentration-dependent translocation”; at GFP-AR (listed as androst-4-ene-3,6-dione) it was “GFP-AR nuclear translocation”.

On to `CCNc1nc(Cl)nc(NC(C)C)n1` [atrazine], for which the GFP-GR nuclear translocation result at GFP-GR is reported as “did not induce GFP-GR translocation”.

`CC(=O)[C@H]1CC[C@H]2[C@@H]3CCC4=CC(=O)CC[C@]4(C)[C@H]3CC[C@]12C` [progesterone]: at GFP-PR-B (eGFP-hPRB), the GFP-PR-B translocation result is “exhibited the expected translocation; also recorded: positive for translocation”.

For the compound `C1=COC=CO1` [dioxin], the pRevTRE-GFP-mAhR translocation result on pRevTRE-GFP-mAhR was “exhibited the expected translocation”.

For `C[C@]12C[C@H](O)[C@H]3[C@@H](CCC4=CC(=O)CC[C@@]43C)[C@@H]1CC[C@@H]2C(=O)CO` [corticosterone], on GFP-GR, the GFP-GR nuclear translocation entry is given as “translocates to the nucleus in a concentration-dependent manner; also recorded: GFP-GR translocation”.
